24 compounds from patent US9920030B2 (priority 2006, dated 2018) can be followed below.

Molecules are shown by their SMILES. Where two headings read alike, the source gives them in different places.

Common to all, as to type: in vivo
Test [1] deals with Phytophthora infestans (the causal agent of tomato late blight). Kind of test: whole plant or invertebrate. To be noted: for pest or weed control at 40 ppm: Phytophthora infestans, 96 h, read-out: Percent Disease Control, Test C.
For test [2] the test system is unchanged. Kind of test: whole plant or invertebrate. The note with it: for pest or weed control at 40 ppm: Phytophthora infestans, 144 h, read-out: Percent Disease Control, Test B.
The test system of test [3] is Plasmopara vilicola (the causal agent of grape downy mildew). Kind of test: Test A: grape downy mildew, test suspension sprayed on grape seedlings after inoculation, visual disease rating. To be noted: for pest or weed control at 40 ppm: Plasmopara, 144 h, read-out: Percent Disease Control, Test A. The method, boiled down:
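Compounds dissolved in acetone (3% of final volume), suspended in 50/50 acetone/water with 250 ppm Trem 014; 200 ppm to run-off equals 500 g/ha. Seedlings inoculated, held saturated at 20 °C 24 h, then sprayed; 5 days at 20 °C, 24 h saturated, then visual rating, 0–100% control versus untreated.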

Setting [4] is: compounds without asterisk (application rate not given), 100 = 100% disease control, 0 = no control relative to the controls.

As to `Cc1cc(C)n(CC(=O)N2CCC(c3nc(C4=NO[C@]5(CCc6ccccc65)C4)cs3)CC2)n1` [Compound 165], the “Percent Disease Control, Test C” value in test [1] (** tested at l0 ppm) is recorded as 99%. In addition, the “Percent Disease Control, Test B” value in test [2] (** tested at l0 ppm) was determined as 100%. In addition, in test [3] (** tested at l0 ppm), the “Percent Disease Control, Test A” value was 99%.

Consider `O=C(Cn1nc(Cl)cc1Cl)N1CCC(c2nc(C3=NOC(c4ccccc4)C3)cs2)CC1` (stereo not drawn) [Compound 166], for which, in test [1] (** tested at l0 ppm), the “Percent Disease Control, Test C” value is reported as 98%. For the same compound, in test [2] (** tested at l0 ppm), the “Percent Disease Control, Test B” value is given as 100%. Moreover, the “Percent Disease Control, Test A” value in test [3] (** tested at l0 ppm) is reported as 100%.

Turning to `Cc1cc(C(F)(F)F)nn1CC(=O)N1CCC(c2nc(C3=NOC4(CCCCC4)C3)cs2)CC1` [Compound 169], in test [1] (setting [4]), the “Percent Disease Control, Test C” value is on record as 99%. In test [2] (setting [4]), the “Percent Disease Control, Test B” value is given as 100%. Moreover, the “Percent Disease Control, Test A” value in test [3] (setting [4]) turned out to be 100%.

With `Cc1cc(C(F)(F)F)nn1CC(=O)N1CCC(c2nc(C3=NOC4(CCOCC4)C3)cs2)CC1` [Compound 173], the “Percent Disease Control, Test C” value in test [1] (* tested at 40 ppm) is given as 99%. For the same compound, the “Percent Disease Control, Test B” value in test [2] (* tested at 40 ppm) was found to be 100%. For the same compound, the “Percent Disease Control, Test A” value in test [3] (* tested at 40 ppm) was 100%.

As for `Cc1cc(C(F)(F)F)nn1CC(=O)N1CCC(c2nc(C3=NOC4(CCCCCC4)C3)cs2)CC1` [Compound 174], in test [1] (* tested at 40 ppm), the “Percent Disease Control, Test C” value stood at 99%. The “Percent Disease Control, Test B” value in test [2] (* tested at 40 ppm) stood at 100%. In addition, the “Percent Disease Control, Test A” value in test [3] (* tested at 40 ppm) is 100%.

Regarding `CC(=O)N1N=C(c2csc(C3CCN(C(=O)Cn4nc(C(F)(F)F)cc4C)CC3)n2)OC12CCCc1ccccc12` (stereo not drawn) [Compound 177], the “Percent Disease Control, Test C” value in test [1] (* tested at 40 ppm) turned out to be 99%. Further, in test [2] (* tested at 40 ppm), the “Percent Disease Control, Test B” value is recorded as 100%. The “Percent Disease Control, Test A” value in test [3] (* tested at 40 ppm) is given as 93%.

Take `Cc1cccc(C)c1[C@H]1CC(c2csc(C3CCN(C(=O)Cn4nc(C(F)(F)F)cc4C)CC3)n2)=NO1` [Compound 178, 1-[4-[4-[(5R)-5-(2,6-dimethylphenyl)-4,5-dihydro-3-isoxazolyl]-2-thiazolyl]-1-piperidinyl]-2-[5-methyl-3-(trifluoromethyl)-1H-pyrazol-1-yl]ethanone]: the pest or weed control at 40 ppm in test [1] amounted to 99%; in test [2], 100%; in test [3] (* tested at 40 ppm) it was 100%.

As to `Cc1cc(C)c([C@H]2CC(c3csc(C4CCN(C(=O)Cn5nc(C(F)(F)F)cc5C)CC4)n3)=NO2)c(C)c1` [Compound 179, 1-[4-[4-[(5R)-4,5-dihydro-5-(2,4,6-trimethylphenyl)-3-isoxazolyl]-2-thiazolyl]-1-piperidinyl]-2-[5-methyl-3-(trifluoromethyl)-1H-pyrazol-1-yl]ethanone], the results for the pest or weed control at 40 ppm in test [1], in test [2] and in test [3] (* tested at 40 ppm) were 98%, 100% and 99%, respectively.

With `Cc1cc(C(F)(F)F)nn1CC(=O)N1CCC(c2nc(C3=NOC(c4ccncc4)C3)cs2)CC1` (stereo not drawn) [Compound 180], the “Percent Disease Control, Test C” value in test [1] (setting [4]) is on record as 99%. For the same compound, the “Percent Disease Control, Test B” value in test [2] (setting [4]) amounted to 100%. For the same compound, the “Percent Disease Control, Test A” value in test [3] (setting [4]) was found to be 50%.

For the compound `CC(=O)N1N=C(c2csc(C3CCN(C(=O)Cn4nc(C(F)(F)F)cc4C)CC3)n2)OC1c1ccccc1` (stereo not drawn) [Compound 181], in test [1] (setting [4]), the “Percent Disease Control, Test C” value stood at 97%. Also, the “Percent Disease Control, Test B” value in test [2] (setting [4]) was determined as 100%. The “Percent Disease Control, Test A” value in test [3] (setting [4]) worked out at 80%.

Turning to `CC(=O)N1N=C(c2csc(C3CCN(C(=O)Cn4nc(C(F)(F)F)cc4C)CC3)n2)OC1(C)c1ccccc1` (stereo not drawn) [Compound 182], the “Percent Disease Control, Test C” value in test [1] (setting [4]) is on record as 97%. Besides, the “Percent Disease Control, Test B” value in test [2] (setting [4]) was 100%. Moreover, in test [3] (setting [4]), the “Percent Disease Control, Test A” value came to 99%.

Regarding `Cc1cc(C(F)(F)F)nn1CC(=O)N1CCC(c2nc(C3=NNC(c4ccccc4)C3)cs2)CC1` (stereo not drawn) [Compound 183], in test [1] (* tested at 40 ppm), the “Percent Disease Control, Test C” value was 33%. In addition, the “Percent Disease Control, Test B” value in test [2] (* tested at 40 ppm) is on record as 92%. Moreover, the “Percent Disease Control, Test A” value in test [3] (* tested at 40 ppm) was 92%.

`Cc1cc(C(F)(F)F)nn1CC(=O)N1CCC(c2nc(C3=NN(C)C(c4ccccc4)C3)cs2)CC1` (stereo not drawn) [Compound 184]: the “Percent Disease Control, Test C” value in test [1] (* tested at 40 ppm) is given as 73%. For the same compound, in test [2] (* tested at 40 ppm), the “Percent Disease Control, Test B” value came out at 95%. Besides, the “Percent Disease Control, Test A” value in test [3] (* tested at 40 ppm) was 99%.

As for `Cc1cc(C(F)(F)F)nn1CC(=O)N1CCC(c2nc(C3=NO[C@]4(COc5ccccc54)C3)cs2)CC1` [Compound 185, 2-[5-methyl-3-(trifluoromethyl)-1H-pyrazol-1-yl]-1-[4-[4-(3R)-spiro[benzofuran-3(2H),5′(4′H)-isoxazol]-3′-yl-2-thiazolyl]-1-piperidinyl]ethanone], the pest or weed control at 40 ppm in test [1] was 98%; in test [2], 100%; in test [3] (* tested at 40 ppm) it was 100%.

As for `Cc1cc(C(F)(F)F)nn1CC(=O)N1CCC(c2nc(C3=NOC(N4CCCC4=O)C3)cs2)CC1` (stereo not drawn) [Compound 188], the “Percent Disease Control, Test C” value in test [1] (* tested at 40 ppm) was 99%. Moreover, the “Percent Disease Control, Test B” value in test [2] (* tested at 40 ppm) was determined as 100%. For the same compound, in test [3] (* tested at 40 ppm), the “Percent Disease Control, Test A” value was determined as 99%.

Regarding `Cc1cc(C(F)(F)F)nn1CC(=O)N1CCC(c2nc(C3=NOC(c4ccccc4Br)C3)cs2)CC1` (stereo not drawn) [Compound 189], the “Percent Disease Control, Test C” value in test [1] (* tested at 40 ppm) was 99%. The “Percent Disease Control, Test B” value in test [2] (* tested at 40 ppm) amounted to 100%. Moreover, the “Percent Disease Control, Test A” value in test [3] (* tested at 40 ppm) is reported as 100%.

In the case of `Cc1cc(C(F)(F)F)nn1CC(=O)N1CCC(c2nc(CN3C(=O)c4ccccc4C3=O)cs2)CC1` [Compound 191], in test [1] (setting [4]), the “Percent Disease Control, Test C” value amounted to 99%. Moreover, the “Percent Disease Control, Test B” value in test [2] (setting [4]) turned out to be 100%. In test [3] (setting [4]), the “Percent Disease Control, Test A” value was 99%.

As for `Cc1cc(C(F)(F)F)nn1CC(=O)N1CCC(c2nc(C3=NOC4(CCCCc5ccccc54)C3)cs2)CC1` (stereo not drawn) [Compound 192], the “Percent Disease Control, Test C” value in test [1] (* tested at 40 ppm) was 99%. Also, the “Percent Disease Control, Test B” value in test [2] (* tested at 40 ppm) is given as 100%. Also, the “Percent Disease Control, Test A” value in test [3] (* tested at 40 ppm) is 99%.

Regarding `Cc1cc(C(F)(F)F)nn1CC(=O)N1CCC(c2nc(C3=NOC4(CCC4)C3)cs2)CC1` [Compound 193], the “Percent Disease Control, Test C” value in test [1] (* tested at 40 ppm) was determined as 99%. Further, the “Percent Disease Control, Test B” value in test [2] (* tested at 40 ppm) was determined as 100%. Moreover, the “Percent Disease Control, Test A” value in test [3] (* tested at 40 ppm) is 100%.

On to `Cc1cc(C(F)(F)F)nn1CC(=O)N1CCC(c2nc(C3=NOC4(CCN(C(=O)OC(C)(C)C)CC4)C3)cs2)CC1` [Compound 194], for which the “Percent Disease Control, Test C” value in test [1] (* tested at 40 ppm) is given as 99%. For the same compound, the “Percent Disease Control, Test B” value in test [2] (* tested at 40 ppm) was found to be 100%. Besides, the “Percent Disease Control, Test A” value in test [3] (* tested at 40 ppm) is given as 94%.

Take `Cc1cc(C(F)(F)F)nn1CC(=O)N1CCC(c2nc(C3=NOC4(CCNCC4)C3)cs2)CC1` [Compound 195]: in test [1] (setting [4]), the “Percent Disease Control, Test C” value is 80%. In addition, the “Percent Disease Control, Test B” value in test [2] (setting [4]) was determined as 92%. For the same compound, the “Percent Disease Control, Test A” value in test [3] (setting [4]) came to 48%.

For `CC(=O)N1CCC2(CC1)CC(c1csc(C3CCN(C(=O)Cn4nc(C(F)(F)F)cc4C)CC3)n1)=NO2` [Compound 196], the “Percent Disease Control, Test C” value in test [1] (* tested at 40 ppm) is 99%. Moreover, the “Percent Disease Control, Test B” value in test [2] (* tested at 40 ppm) is recorded as 100%. Also, the “Percent Disease Control, Test A” value in test [3] (* tested at 40 ppm) amounted to 99%.

As to `CC(=O)N1N=C(c2csc(C3CCN(C(=O)Cn4nc(C(F)(F)F)cc4C)CC3)n2)CC1c1ccccc1` (stereo not drawn) [Compound 197], the “Percent Disease Control, Test C” value in test [1] (* tested at 40 ppm) is 90%. Also, the “Percent Disease Control, Test B” value in test [2] (* tested at 40 ppm) is on record as 100%. For the same compound, the “Percent Disease Control, Test A” value in test [3] (* tested at 40 ppm) is 89%.

As for `Cc1cc(C(F)(F)F)nn1CC(=O)N1CCC(c2nc(C3=NOC(C4OCCO4)C3)cs2)CC1` (stereo not drawn) [Compound 199], the “Percent Disease Control, Test C” value in test [1] (setting [4]) worked out at 98%. For the same compound, in test [2] (setting [4]), the “Percent Disease Control, Test B” value is 99%. Further, the “Percent Disease Control, Test A” value in test [3] (setting [4]) amounted to 91%.
